Structures are written as SMILES. Values joined by “and” are separate entries in the source; they are usually repeats but may differ in a detail not shown here. Equal entries are not always repeated. Inconclusive results and toxic doses are left out.

Data on 19 molecules can be found in PubChem BioAssay AID248 (DTP/NCI, 2004).

This test concerns L1210 leukemia ip in BDF1 mice, survival T/C. Kind of test: NCI In Vivo Anticancer Drug Screen. Data for tumor model L1210 Leukemia (intraperitoneal) in B6D2F1 (BDF1) mice. As to conditions: endpoint: mean survival time, higher = longer survival. In outline: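 Transplantable tumor model; survival measured in treated vs vehicle control mice. Value = treated/control.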
[1] abbreviates: dose: 100.0 mg/kg/injection, schedule: Q01DX001 (ip), vehicle: Klucel (hydroxypropylcellulose) (HPC).
The mark [2] stands for this setting: dose: 100.0 mg/kg/injection, schedule: Q04DX003 (ip), vehicle: Klucel (hydroxypropylcellulose) (HPC).
The mark [3] stands for this setting: dose: 200.0 mg/kg/injection, schedule: Q01DX001 (ip), vehicle: Klucel (hydroxypropylcellulose) (HPC).
Setting [4] is: dose: 200.0 mg/kg/injection, schedule: Q04DX003 (ip), vehicle: Klucel (hydroxypropylcellulose) (HPC).
Where [5] appears, read: dose: 400.0 mg/kg/injection, schedule: Q01DX001 (ip), vehicle: Klucel (hydroxypropylcellulose) (HPC).
Where [6] appears, read: dose: 400.0 mg/kg/injection, schedule: Q04DX003 (ip), vehicle: Klucel (hydroxypropylcellulose) (HPC).
Setting [7] is: dose: 25.0 mg/kg/injection, schedule: Q01DX009 (ip), vehicle: saline with Tween-80.
[8] abbreviates: dose: 50.0 mg/kg/injection, schedule: Q01DX009 (ip), vehicle: saline with Tween-80.
[9] abbreviates: dose: 100.0 mg/kg/injection, schedule: Q01DX009 (ip), vehicle: saline with Tween-80.
The mark [10] stands for this setting: dose: 100.0 mg/kg/injection, schedule: Q01DX009 (ip), vehicle: Klucel (hydroxypropylcellulose) (HPC).
Where [11] appears, read: dose: 200.0 mg/kg/injection, schedule: Q01DX009 (ip), vehicle: Klucel (hydroxypropylcellulose) (HPC).
Where [12] appears, read: dose: 75.0 mg/kg/injection, schedule: Q01DX001 (ip), vehicle: saline.
Setting [13] is: dose: 150.0 mg/kg/injection, schedule: Q01DX001 (ip), vehicle: saline.
Setting [14] is: dose: 300.0 mg/kg/injection, schedule: Q01DX001 (ip), vehicle: saline.
Setting [15] is: dose: 50.0 mg/kg/injection, schedule: Q01DX009 (ip), vehicle: saline.

Consider `CCC1(O)CC2CN(CCc3c([nH]c4ccccc34)C(C(=O)OC)(c3cc4c(cc3OC)N(C)C3C(O)(C(=O)NCCSSCCNC(=O)C5(O)C(O)C6(CC)C=CCN7CCC8(c9cc(C%10(C(=O)OC)CC%11CN(CCc%12c%10[nH]c%10ccccc%12%10)CC(O)(CC)C%11)c(OC)cc9N(C)C58)C76)C(O)C5(CC)C=CCN6CCC43C65)C2)C1` (centres undefined), for which the T/C (dose: 1800.0 micrograms/kg/injection, schedule: Q04DX003 (ip), vehicle: saline) was 154 % of control and the T/C (dose: 3000.0 micrograms/kg/injection, schedule: Q04DX003 (ip), vehicle: saline) was 119 % of control.
On to `COC(=O)CCc1c(C)[nH]c(C(=O)OC(C)(C)C)c1C`, for which the T/C was 97 % of control under setting [1]; 93 % of control under setting [2]; 101 % of control under setting [3]; 98 % of control under setting [4]; 93 % of control under setting [5]; 95 % of control under setting [6].
Consider `O=S(Cc1ncc2cnccn12)c1ccccc1` (centres undefined), for which the T/C is 110 % of control (dose: 50.0 mg/kg/injection, schedule: Q01DX005 (ip), vehicle: saline); 104 % of control (dose: 100.0 mg/kg/injection, schedule: Q01DX005 (ip), vehicle: saline); 101 % of control (dose: 100.0 mg/kg/injection, schedule: Q04DX003 (ip), vehicle: saline); 104 % of control (dose: 200.0 mg/kg/injection, schedule: Q01DX005 (ip), vehicle: saline); 105 % of control (dose: 200.0 mg/kg/injection, schedule: Q04DX003 (ip), vehicle: saline); 105 % of control (dose: 400.0 mg/kg/injection, schedule: Q01DX005 (ip), vehicle: saline). For the same molecule, the T/C (dose: 400.0 mg/kg/injection, schedule: Q04DX003 (ip), vehicle: saline) is 105 % of control.
As to `CC1(C)C(O)(C#N)C(C)(C)C1(O)C#N` (centres undefined), the T/C is 107 % of control (dose: 3.13 mg/kg/injection, schedule: Q01DX009 (ip), vehicle: saline); 115 % of control (dose: 6.25 mg/kg/injection, schedule: Q01DX009 (ip), vehicle: saline); 105 % of control (dose: 12.5 mg/kg/injection, schedule: Q01DX009 (ip), vehicle: saline).
In the case of `OCCC1(CCO)CCCCC1`, the T/C was 99 % of control under setting [7]; 114 % of control (dose: 25.0 mg/kg/injection, schedule: Q04DX003 (ip), vehicle: saline with Tween-80); 95 % of control under setting [8]; 104 % of control (dose: 50.0 mg/kg/injection, schedule: Q04DX003 (ip), vehicle: saline with Tween-80); 95 % of control and 108 % of control under setting [9].
As for `COC(=O)C1OC(n2cnc3c(N)ncnc32)C(OC(C)=O)C(OC(C)=O)C1OC(C)=O` (centres undefined), the T/C is 100 % of control (dose: 50.0 mg/kg/injection, schedule: Q01DX001 (ip), vehicle: carboxymethylcellulose (CMC)); 92 % of control (dose: 100.0 mg/kg/injection, schedule: Q01DX001 (ip), vehicle: carboxymethylcellulose (CMC)); 100 % of control (dose: 200.0 mg/kg/injection, schedule: Q01DX001 (ip), vehicle: carboxymethylcellulose (CMC)); 92 % of control (dose: 400.0 mg/kg/injection, schedule: Q01DX001 (ip), vehicle: carboxymethylcellulose (CMC)).
As for `O=C(NC(=O)C(Cl)Cl)OC1c2ccccc2-c2ccccc21`, the T/C was 95 % of control (dose: 50.0 mg/kg/injection, schedule: Q01DX001 (ip), vehicle: Klucel (hydroxypropylcellulose) (HPC)); 100 % of control under setting [1]; 90 % of control under setting [10]; 96 % of control under setting [2]; 94 % of control under setting [3]; 93 % of control under setting [11]. For the same molecule, the T/C under setting [4] was 96 % of control, the T/C under setting [5] is 92 % of control and the T/C under setting [6] is 95 % of control.
As for `CCCCCn1c(Cl)c(C(=O)O)c2ccccc21`, the T/C by setting is: (dose: 25.0 mg/kg/injection, schedule: Q04DX003 (ip), vehicle: Klucel (hydroxypropylcellulose) (HPC)) 109 % of control; (dose: 50.0 mg/kg/injection, schedule: Q04DX003 (ip), vehicle: Klucel (hydroxypropylcellulose) (HPC)) 97 % of control; under setting [2], 102 % of control.
As for `Cc1nn(C)c(N)c1N=O`, the T/C runs as follows: (dose: 50.0 mg/kg/injection, schedule: Q01DX009 (ip), vehicle: Klucel (hydroxypropylcellulose) (HPC)) 102 % of control; under setting [10], 98 % of control; under setting [11], 102 % of control.
Turning to `c1ccc(NP2(Nc3ccccc3)=NP(Nc3ccccc3)(Nc3ccccc3)=NP(Nc3ccccc3)(Nc3ccccc3)=N2)cc1`, the T/C under setting [12] is 96 % of control; the T/C under setting [2] was 99 % of control; the T/C under setting [13] is 101 % of control; the T/C under setting [4] was 89 % of control; the T/C under setting [14] is 91 % of control.
As for `CC(=O)CCC(=O)OCCCl`, the T/C is, setting by setting: under setting [15], 102 % of control; (dose: 100.0 mg/kg/injection, schedule: Q01DX009 (ip), vehicle: saline) 101 % of control; (dose: 200.0 mg/kg/injection, schedule: Q01DX009 (ip), vehicle: saline) 101 % of control.
Consider `CCC(C(=O)O)N1C(=O)C2C3C=CC(C3)C2C1=O` (centres undefined), for which the T/C (dose: 100.0 mg/kg/injection, schedule: Q04DX003 (ip), vehicle: saline with Tween-80) is 94 % of control and 96 % of control; the T/C (dose: 200.0 mg/kg/injection, schedule: Q04DX003 (ip), vehicle: saline with Tween-80) was 96 % of control and 105 % of control; the T/C (dose: 400.0 mg/kg/injection, schedule: Q04DX003 (ip), vehicle: saline with Tween-80) was 105 % of control.
Regarding `CSC(=O)N=Nc1c(O)n(C)c(=O)n(C)c1=O`, the T/C by setting is: (dose: 12.5 mg/kg/injection, schedule: Q01DX009 (ip), vehicle: saline with Tween-80) 104 % of control; under setting [7], 97 % of control; under setting [8], 97 % of control and 87 % of control.
For `O=[N+]([O-])c1ccc(C2=CSC3=NCCN23)cc1`, the T/C was 97 % of control (dose: 5.0 mg/kg/injection, schedule: Q01DX001 (ip), vehicle: saline); 95 % of control (dose: 10.0 mg/kg/injection, schedule: Q01DX001 (ip), vehicle: saline); 95 % of control (dose: 20.0 mg/kg/injection, schedule: Q01DX001 (ip), vehicle: saline); 110 % of control (dose: 25.0 mg/kg/injection, schedule: Q01DX009 (ip), vehicle: saline); 97 % of control (dose: 40.0 mg/kg/injection, schedule: Q01DX001 (ip), vehicle: saline); 95 % of control under setting [15].
As for `COc1c(C(C)(C)C)cc(/C=C(\NC(=O)c2ccccc2)C(=O)O)cc1C(C)(C)C`, the T/C was 98 % of control under setting [1] and 92 % of control under setting [3].
In the case of `CCCCCC[n+]1cccc(C#N)c1`, the T/C (dose: 18.75 mg/kg/injection, schedule: Q01DX009 (ip), vehicle: saline) is 95 % of control; the T/C (dose: 37.5 mg/kg/injection, schedule: Q01DX009 (ip), vehicle: saline) was 95 % of control; the T/C under setting [12] was 113 % of control; the T/C (dose: 75.0 mg/kg/injection, schedule: Q01DX009 (ip), vehicle: saline) is 94 % of control; the T/C (dose: 75.0 mg/kg/injection, schedule: Q04DX003 (ip), vehicle: saline) is 97 % of control; the T/C under setting [13] is 95 % of control. Further, the T/C is, setting by setting: (dose: 150.0 mg/kg/injection, schedule: Q04DX003 (ip), vehicle: saline) 101 % of control; under setting [14], 100 % of control.
Take `CC(C)(O)CNC1CCCCC1`: under setting [12], the T/C is 108 % of control.
Consider `CC/S(=N\S(=O)(=O)c1ccc(C)cc1)c1ccccc1` (centres undefined), for which the T/C is 108 % of control under setting [9]; 100 % of control (dose: 200.0 mg/kg/injection, schedule: Q01DX009 (ip), vehicle: saline with Tween-80); 100 % of control (dose: 400.0 mg/kg/injection, schedule: Q01DX009 (ip), vehicle: saline with Tween-80).
In the case of `CCCCCCCCCC/C=N/Nc1ccc([N+](=O)[O-])cc1[N+](=O)[O-]`, the T/C (dose: 50.0 mg/kg/injection, schedule: Q01DX001 (ip), vehicle: saline with Tween-80) was 93 % of control; the T/C (dose: 100.0 mg/kg/injection, schedule: Q01DX001 (ip), vehicle: saline with Tween-80) is 92 % of control; the T/C (dose: 200.0 mg/kg/injection, schedule: Q01DX001 (ip), vehicle: saline with Tween-80) was 93 % of control.
